This passage reports DC50 results from patent publication US20260232673A1, “ISOINDOLINONE GLUTARIMIDE AND PHENYL GLUTARIMIDE ANALOGS AS DEGRADERS OF RET KINASE” (Bristol-Myers Squibb Company, priority 2023, published 2026).

T1 sequence (Q16204+P07949 fused): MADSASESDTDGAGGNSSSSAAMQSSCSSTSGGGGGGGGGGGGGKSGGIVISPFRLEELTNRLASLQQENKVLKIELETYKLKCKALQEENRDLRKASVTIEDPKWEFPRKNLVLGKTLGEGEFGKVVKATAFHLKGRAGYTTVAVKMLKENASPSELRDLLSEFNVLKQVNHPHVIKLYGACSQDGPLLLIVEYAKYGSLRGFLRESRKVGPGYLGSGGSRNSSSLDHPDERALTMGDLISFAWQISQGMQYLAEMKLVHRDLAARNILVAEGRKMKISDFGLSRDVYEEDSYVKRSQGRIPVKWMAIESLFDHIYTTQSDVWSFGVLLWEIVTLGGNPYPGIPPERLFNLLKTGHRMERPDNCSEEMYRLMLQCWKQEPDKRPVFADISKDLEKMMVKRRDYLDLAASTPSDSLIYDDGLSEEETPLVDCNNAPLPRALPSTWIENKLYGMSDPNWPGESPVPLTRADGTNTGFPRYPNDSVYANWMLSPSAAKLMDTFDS
T1 sequence (Q96SW2 whole entry, the tested form may be a part): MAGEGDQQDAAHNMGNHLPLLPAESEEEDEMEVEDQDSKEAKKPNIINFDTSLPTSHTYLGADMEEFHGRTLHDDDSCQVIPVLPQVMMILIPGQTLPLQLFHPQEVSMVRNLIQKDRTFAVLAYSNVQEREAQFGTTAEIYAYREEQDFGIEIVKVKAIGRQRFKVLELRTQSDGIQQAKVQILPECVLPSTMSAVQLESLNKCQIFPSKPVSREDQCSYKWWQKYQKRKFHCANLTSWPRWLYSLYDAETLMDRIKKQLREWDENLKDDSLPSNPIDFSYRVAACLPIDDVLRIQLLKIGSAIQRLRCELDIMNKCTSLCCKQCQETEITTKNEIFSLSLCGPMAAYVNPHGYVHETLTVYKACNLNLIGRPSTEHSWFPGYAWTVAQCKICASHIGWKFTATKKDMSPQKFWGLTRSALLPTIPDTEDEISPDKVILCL

The test has as its target T1, CCDC6-RET fusion (Homo sapiens, UniProt P07949+Q16204+Q96SW2).
T1 construct: CCDC6 (N-terminal fusion partner from the natural gene rearrangement, Q16204); endogenous in cells; host or cells: TPC-1 (parental) papillary thyroid carcinoma cells
In words: Cellular RET degradation assay (AlphaLISA Surefire Ultra, TPC-1 cells). It is filed as cell-based. Conditions: half-maximal degradation concentration (DC50); parental TPC-1/CCDC6-RET cell line; 24 hrs compound treatment; AlphaLISA luminescence; read-out: Cell Density TPC-1/CCDC6-RET IC50. As for the experimental part:
Cellular RET degradation compound potency was determined using the bead-based luminescent amplification assay—AlphaLISA Surefire Ultra Detection Kit (Perkin-Elmer). The CCDC6-RET fusion expressing papillary thyroid carcinoma (TPC-1) cell line was selected for screening of potential degraders: Parental (TPC-1/CCDC6-RET). Cells were plated in 384 well culture plates (Greiner Bio-One) at 10,000 cells/well in 50 ul/well DMEM (Fisher Scientific) with 2% FBS serum (Gibco). […] Low normalization wells were media only and high normalization wells were cells treated with DMSO only. Treated cell plates were placed in an incubator at 37C and 5% CO2 for 24 hrs. At 24 hrs, cell media was removed by a FELIX automated liquid hander (Analytik Jena) and 25 ul of cell lysis buffer (provided in AlphaLisa kit) was added to each well. 5 ul cell lysate were transferred into a 384-well microplate (Perkin Elmer) before addition of 2.5 ul AlphaLISA Acceptor Bead mix. The plates were sealed and kept at room temperature for 1 hr before addition of donor bead mixture. Donor bead addition was performed in the dark and incubated for >1 hr before AlphaLISA luminescence was measured on an Envision plate reader with an Alphascreen aperture at RT (excitation 680 nm, emission 615 nm). RET protein abundance (and therefore degradation) directly corresponds to luminescence intensity.
Intensities were normalized relative to the average values from 16 wells containing media alone (blank-low) and 16 wells containing cells+DMSO (high). % Degradation for each well was determined using the standard equation, where
DC50 (IC50) values for each compound tested are calculated by analyzing plots of % degradation versus compound concentration, and fitting to the standard 4-parameter logistic curve where,
Top and bottom are the % degradation at infinitely large and infinitely small compound concentrations, respectively, while Halfmax is the compound concentration yielding % degradation corresponding to ½ Top-Bottom, and N is the Hill coefficient. DC50 values are calculated according to the relationship,
Compound replicates were performed in independent assays. Maximum degradation (YMax) was defined as the maximal % degradation value from the 4-parameter logistic equation, as previously described.
In general terms: In Alpha technology, singlet oxygen from a donor bead excites a nearby acceptor bead.
On to `Nc1ncnc2c1c(-c1noc(C3CC3)c1-c1ccccn1)nn2[C@H]1C[C@H](C(=O)NCCCCN2CCN(c3ccc4c(c3)CN(C3CCC(=O)NC3=O)C4=O)CC2)C1` (stereo partly drawn) [Example A2, (1r,3r)-3-{4-amino-3-[5-cyclopropyl-4-(pyridin-2-yl)-1,2-oxazol-3-yl]-1H-pyrazolo[3,4-d]pyrimidin-1-yl}-N-(4-{4-[2-(2,6-dioxopiperidin-3-yl)-1-oxo-2,3-dihydro-1H-isoindol-5-yl]piperazin-1-yl}butyl)cyclobutane-1-carboxamide], for which the DC50 worked out at 3.17 nM. The same measure for `Nc1ncnc2c1c(-c1noc(C3CC3)c1-c1ccccn1)nn2[C@H]1C[C@H](C(=O)NCCN2CCC(c3ccc4c(c3)CN(C3CCC(=O)NC3=O)C4=O)CC2)C1` (stereo partly drawn) [Example A3, (1r,3r)-3-{4-amino-3-[5-cyclopropyl-4-(pyridin-2-yl)-1,2-oxazol-3-yl]-1H-pyrazolo[3,4-d]pyrimidin-1-yl}-N-(2-{4-[2-(2,6-dioxopiperidin-3-yl)-1-oxo-2,3-dihydro-1H-isoindol-5-yl]piperidin-1-yl}ethyl)cyclobutane-1-carboxamide]: 10.2 nM; for `Nc1ncnc2c1c(-c1noc(C3CC3)c1-c1ccccn1)nn2[C@H]1C[C@H](C(=O)NCCCCN2CCC(c3ccc4c(c3)CN(C3CCC(=O)NC3=O)C4=O)CC2)C1` (stereo partly drawn) [Example A4, (1r,3r)-3-{4-amino-3-[5-cyclopropyl-4-(pyridin-2-yl)-1,2-oxazol-3-yl]-1H-pyrazolo[3,4-d]pyrimidin-1-yl}-N-(4-{4-[2-(2,6-dioxopiperidin-3-yl)-1-oxo-2,3-dihydro-1H-isoindol-5-yl]piperidin-1-yl}butyl) cyclobutane-1-carboxamide]: 6.51 nM. In the case of `Nc1ncnc2c1c(-c1noc(C3CC3)c1-c1ccccn1)nn2[C@H]1C[C@H](C(=O)NCCCCCCN2CCC(c3ccc4c(c3)CN(C3CCC(=O)NC3=O)C4=O)CC2)C1` (stereo partly drawn) [Example A5, (1r,3r)-3-{4-amino-3-[5-cyclopropyl-4-(pyridin-2-yl)-1,2-oxazol-3-yl]-1H-pyrazolo[3,4-d]pyrimidin-1-yl}-N-(6-{4-[2-(2,6-dioxopiperidin-3-yl)-1-oxo-2,3-dihydro-1H-isoindol-5-yl]piperidin-1-yl}hexyl)cyclobutane-1-carboxamide], the DC50 is 9.27 nM. Consider `Nc1ncnc2c1c(-c1noc(C3CC3)c1-c1ccccn1)nn2[C@H]1C[C@H](C(=O)NCCCCN2CCN(c3ccc4c(c3)C(=O)N(C3CCC(=O)NC3=O)C4)CC2)C1` (stereo partly drawn) [Example A6, (1r,3r)-3-{4-amino-3-[5-cyclopropyl-4-(pyridin-2-yl)-1,2-oxazol-3-yl]-1H-pyrazolo[3,4-d]pyrimidin-1-yl}-N-(4-{4-[2-(2,6-dioxopiperidin-3-yl)-3-oxo-2,3-dihydro-1H-isoindol-5-yl]piperazin-1-yl}butyl) cyclobutane-1-carboxamide], for which the DC50 was found to be 6.42 nM. As to `Nc1ncnc2c1c(-c1noc(C3CC3)c1-c1ccccn1)nn2[C@H]1C[C@H](C(=O)NCCCCCCN2CCN(c3ccc4c(c3)C(=O)N(C3CCC(=O)NC3=O)C4)CC2)C1` (stereo partly drawn) [Example A7, (1r,3r)-3-{4-amino-3-[5-cyclopropyl-4-(pyridin-2-yl)-1,2-oxazol-3-yl]-1H-pyrazolo[3,4-d]pyrimidin-1-yl}-N-(6-{4-[2-(2,6-dioxopiperidin-3-yl)-3-oxo-2,3-dihydro-1H-isoindol-5-yl]piperazin-1-yl}hexyl) cyclobutane-1-carboxamide], the DC50 turned out to be 5.32 nM. Regarding `Nc1ncnc2c1c(-c1noc(C3CC3)c1-c1ccccn1)nn2[C@H]1C[C@H](C(=O)NCCCCN2CCC(c3ccc4c(c3)C(=O)N(C3CCC(=O)NC3=O)C4)CC2)C1` (stereo partly drawn) [Example A8, (1r,3r)-3-{4-amino-3-[5-cyclopropyl-4-(pyridin-2-yl)-1,2-oxazol-3-yl]-1H-pyrazolo[3,4-d]pyrimidin-1-yl}-N-(4-{4-[2-(2,6-dioxopiperidin-3-yl)-3-oxo-2,3-dihydro-1H-isoindol-5-yl]piperidin-1-yl}butyl)cyclobutane-1-carboxamide], the DC50 was 17.4 nM. On to `Nc1ncnc2c1c(-c1noc(C3CC3)c1-c1ccccn1)nn2[C@H]1C[C@H](C(=O)NCCCCCCN2CCC(c3ccc4c(c3)C(=O)N(C3CCC(=O)NC3=O)C4)CC2)C1` (stereo partly drawn) [Example A9, (1r,3r)-3-{4-amino-3-[5-cyclopropyl-4-(pyridin-2-yl)-1,2-oxazol-3-yl]-1H-pyrazolo[3,4-d]pyrimidin-1-yl}-N-(6-{4-[2-(2,6-dioxopiperidin-3-yl)-3-oxo-2,3-dihydro-1H-isoindol-5-yl]piperidin-1-yl}hexyl)cyclobutane-1-carboxamide], for which the DC50 worked out at 22 nM. In the case of `Nc1ncnc2c1c(-c1noc(C3CC3)c1-c1ccccn1)nn2[C@H]1C[C@H](C(=O)NCCCCNc2ccc(C3CCC(=O)NC3=O)cc2)C1` (stereo partly drawn) [Example A11, (1r,3r)-3-{4-amino-3-[5-cyclopropyl-4-(pyridin-2-yl)-1,2-oxazol-3-yl]-1H-pyrazolo[3,4-d]pyrimidin-1-yl}-N-(4-{[4-(2,6-dioxopiperidin-3-yl)phenyl]amino}butyl) cyclobutane-1-carboxamide], the DC50 was 57.6 nM. The result for `CC(C)n1nc(-c2noc(C3CC3)c2-c2cn(C3CCN(C(=O)CCCCCCN4CCN(c5ccc6c(c5)CN(C5CCC(=O)NC5=O)C6=O)CC4)CC3)cn2)c2c(N)ncnc21` (stereo not drawn) [Example A12, 3-[5-(4-{7-[4-(4-{3-[4-amino-1-(propan-2-yl)-1H-pyrazolo[3,4-d]pyrimidin-3-yl]-5-cyclopropyl-1,2-oxazol-4-yl}-1H-imidazol-1-yl)piperidin-1-yl]-7-oxoheptyl}piperazin-1-yl)-1-oxo-2,3-dihydro-1H-isoindol-2-yl]piperidine-2,6-dione] reads 1.77 nM; that for `CC(C)n1nc(-c2noc(C3CC3)c2-c2cn(C3CCN(C(=O)CCCCCCN4CCC(c5ccc6c(c5)CN(C5CCC(=O)NC5=O)C6=O)CC4)CC3)cn2)c2c(N)ncnc21` (stereo not drawn) [Example A14, 3-[5-(1-{7-[4-(4-{3-[4-amino-1-(propan-2-yl)-1H-pyrazolo[3,4-d]pyrimidin-3-yl]-5-cyclopropyl-1,2-oxazol-4-yl}-1H-imidazol-1-yl)piperidin-1-yl]-7-oxoheptyl}piperidin-4-yl)-1-oxo-2,3-dihydro-1H-isoindol-2-yl]piperidine-2,6-dionc], 2.02 nM; that for `CC(C)n1nc(-c2noc(C3CC3)c2-c2cn(C3CCN(C(=O)CCCCN4CCC(c5ccc6c(c5)C(=O)N(C5CCC(=O)NC5=O)C6)CC4)CC3)cn2)c2c(N)ncnc21` (stereo not drawn) [Example A17, 3-[6-(1-{5-[4-(4-{3-[4-amino-1-(propan-2-yl)-1H-pyrazolo[3,4-d]pyrimidin-3-yl]-5-cyclopropyl-1,2-oxazol-4-yl}-1H-imidazol-1-yl)piperidin-1-yl]-5-oxopentyl}piperidin-4-yl)-1-oxo-2,3-dihydro-1H-isoindol-2-yl]piperidine-2,6-dione], 43.2 nM.

For `CC(C)n1nc(-c2noc(C3CC3)c2C2CCN(C(=O)CCCCCCN3CCN(c4ccc5c(c4)C(=O)N(C4CCC(=O)NC4=O)C5)CC3)CC2)c2c(N)ncnc21` (stereo not drawn) [Example A19, 3-(6-{4-[7-(4-{3-[4-amino-1-(propan-2-yl)-1H-pyrazolo[3,4-d]pyrimidin-3-yl]-5-cyclopropyl-1,2-oxazol-4-yl}piperidin-1-yl)-7-oxoheptyl]piperazin-1-yl}-1-oxo-2,3-dihydro-1H-isoindol-2-yl)piperidine-2,6-dione], the DC50 amounted to 27.8 nM. On to `COC1(C(=O)N[C@@H](CCCNC(=O)CCCCCCCCNc2cccc(C3CCC(=O)NC3=O)c2)c2ccc(-n3cc(F)cn3)nc2)CCN(c2nc(C)cc(Nc3cc(C)[nH]n3)n2)CC1` (stereo partly drawn) [Example A29], for which the DC50 amounted to 4.88 nM. Turning to `COC1(C(=O)N[C@@H](CCCNC(=O)CCCCCCN2CCN(c3ccc4c(c3)CN(C3CCC(=O)NC3=O)C4=O)CC2)c2ccc(-n3cc(F)cn3)nc2)CCN(c2nc(C)cc(Nc3cc(C)[nH]n3)n2)CC1` (stereo partly drawn) [Example A34, 7-{4-[2-(2,6-dioxopiperidin-3-yl)-1-oxo-2,3-dihydro-1H-isoindol-5-yl]piperazin-1-yl}-N-[(4S)-4-[6-(4-fluoro-1H-pyrazol-1-yl)pyridin-3-yl]-4-[(4-methoxy-1-{4-methyl-6-[(5-methyl-1H-pyrazol-3-yl)amino]pyrimidin-2-yl}piperidin-4-yl)formamido]butyl] heptanamide], the DC50 came out at 13.2 nM.
